From US20230114728A1 (Venatorx Pharmaceuticals, Inc., priority 2019, published 2023)
≈ marks a conversion by molar mass, not a printed value.

How the values were obtained:
[1] = biological target: T1, E. coli K12 PBP3 (Escherichia coli, UniProt P0AD68); assay: biochemical; type: binding
T1 construct: made in house
Outline: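 Fluorescence polarization (ex 490/em 520 nm) competition of inhibitors against Bocillin-FL at 0.1 μM, read up to 60 min. Final PBP levels: E. coli PBP3 1.5 μM; A. baumannii PBP2 2.5 μM, PBP3 0.2 μM in Tris pH 8.0/NaCl/glycerol/Tween 20; N. gonorrhoeae PBP2 […] in Hepes pH 8.0/NaCl/glycerol. EC50 = concentration halving PBP-bound Bocillin-FL.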

[2] = biological target: T2, P. aeruginosa PBP3 (Pseudomonas aeruginosa, UniProt G3XD46); assay: Bocillin-FL fluorescence polarization competition binding assay, P. aeruginosa PBP3; settings: fluorescence polarization competition binding assay using Bocillin-FL
T2 construct: made in house
T2 sequence (G3XD46 whole entry): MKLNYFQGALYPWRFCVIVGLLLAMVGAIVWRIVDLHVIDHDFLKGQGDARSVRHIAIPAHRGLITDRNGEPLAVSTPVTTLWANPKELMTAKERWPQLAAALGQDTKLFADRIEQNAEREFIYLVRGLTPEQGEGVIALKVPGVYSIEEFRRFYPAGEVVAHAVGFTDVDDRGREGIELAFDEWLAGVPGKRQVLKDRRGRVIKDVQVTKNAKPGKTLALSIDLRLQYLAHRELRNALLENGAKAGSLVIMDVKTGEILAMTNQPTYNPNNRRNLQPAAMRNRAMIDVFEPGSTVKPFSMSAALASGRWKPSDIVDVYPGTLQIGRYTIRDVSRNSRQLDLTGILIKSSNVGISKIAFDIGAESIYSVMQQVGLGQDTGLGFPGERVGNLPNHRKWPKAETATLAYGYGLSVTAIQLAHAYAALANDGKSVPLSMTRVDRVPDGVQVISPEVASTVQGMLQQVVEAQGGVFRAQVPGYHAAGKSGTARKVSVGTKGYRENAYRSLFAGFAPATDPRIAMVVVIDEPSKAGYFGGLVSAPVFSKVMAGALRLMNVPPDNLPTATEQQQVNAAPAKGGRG
Outline: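 Binding of boronic acid inhibitors to purified Pseudomonas aeruginosa (PA01) PBP3 was measured by fluorescence polarization competition with Bocillin-FL, a fluorescent penicillin V. Reactions of 80 μl contained 0.75 μM PBP3 and 0.1 μM Bocillin-FL in 50 mM Hepes (pH 8.0), 300 mM NaCl and 5% (v/v) glycerol, in black 384-well plates. FP (Excitation 490 nm, Emission 520 nm) was read for up to 60 minutes. EC50 is the concentration that halves PBP-bound Bocillin-FL.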

[3] = tested on: A. baumannii ATCC 19606; assay: Broth microdilution MIC in CAMHB; type: cell-based; settings: Acinetobacter baumannii, ATCC19606; MHB; read-out: Minimum Inhibitory Concentration, A. baumannii ATCC 19606
Outline: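 CLSI microdilution; CAMHB; inoculum 2-8×10^5 CFU/mL from 3-5 h 37° C culture; 2-fold compound series; 16-20 h, 37° C; MIC = lowest well without visible growth.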

[4] = tested on: E. coli 901C; assay: Broth microdilution MIC in CAMHB; type: cell-based; settings: Escherichia coli; E. coli 901C (hyper-permeable); MHB; read-out: Minimum Inhibitory Concentration, E. coli 901C
Outline: (§1)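 Colonies from cation-adjusted Mueller Hinton agar are grown in broth (3-5 h, 37° C), adjusted by OD600, and added at 2-8×10^5 CFU/mL to 2-fold compound dilutions. After 16-20 h at 37° C, the lowest concentration without growth is taken as MIC.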

[5] = tested on: E. coli AG100A; assay: Broth microdilution MIC in CAMHB; type: cell-based; settings: Escherichia coli, read-out: Minimum Inhibitory Concentration, E. coli AG100A
Outline: as §1

[6] = tested on: E. coli AG100; assay: Broth microdilution MIC in CAMHB; type: cell-based; settings: Escherichia coli; E. coli AG100 (wild-type parent); MHB; read-out: Minimum Inhibitory Concentration, E. coli AG100
Outline: as §1

[7] = tested on: E. coli ATCC 25922; assay: Broth microdilution MIC in CAMHB; type: cell-based; settings: Escherichia coli, ATCC25922; E. coli ATCC 25922; MHB; read-out: Minimum Inhibitory Concentration, E. coli 25922
Outline: as §1

[8] = tested on: E. coli D22; assay: Broth microdilution MIC in CAMHB; type: cell-based; settings: Escherichia coli; E. coli D22 (hyper-permeable); MHB; read-out: Minimum Inhibitory Concentration, E. coli D22
Outline: as §1

[9] = tested on: K. pneumoniae 848844 producing SHV-11 and KPC-2; assay: Broth microdilution MIC in CAMHB; type: cell-based; settings: Klebsiella pneumoniae, read-out: Minimum Inhibitory Concentration, K. pneumoniae 848844
Outline: as §1

[10] = tested on: K. pneumoniae SI-117 producing VIM-1; assay: Broth microdilution MIC in CAMHB; type: cell-based; settings: Klebsiella pneumoniae, read-out: Minimum Inhibitory Concentration, K. pneumoniae SI-117
Outline: as §1

[11] = tested on: K. pneumoniae UMM producing SHV-5 and KPC-2; assay: Broth microdilution MIC in CAMHB; type: cell-based; settings: Klebsiella pneumoniae, read-out: Minimum Inhibitory Concentration, K. pneumoniae UMM
Outline: as §1

[12] = tested on: P. aeruginosa (ΔmexAB-oprM); assay: Broth microdilution MIC in CAMHB; type: cell-based; settings: Pseudomonas aeruginosa, read-out: Minimum Inhibitory Concentration, P. aeruginosa ΔmexAB-OprM
Outline: as §1

[13] = tested on: P. aeruginosa ATCC 35151; assay: Broth microdilution MIC in CAMHB; type: cell-based; settings: Pseudomonas aeruginosa, ATCC35151; MHB; hyper-permeable strain; read-out: Minimum Inhibitory Concentration, P. aeruginosa ATCC 35151
Outline: as §1

[14] = tested on: P. aeruginosa PAO1; assay: Broth microdilution MIC in CAMHB; type: cell-based; settings: Pseudomonas aeruginosa, MHB, read-out: Minimum Inhibitory Concentration, P. aeruginosa PAO1
Experimental: To determine the ability of test compounds to inhibit the growth of bacterial strains, classic cell based broth microdilution minimum inhibitory concentration (MIC) assays were employed. MIC assays are performed according to CLSI methods except where otherwise noted (CLSI, 2018 and CLSI, 2019). The reference type strain E. coli ATCC 25922; the wild-type parent strain E. coli AG100; the hyper-permeable E. coli 901C and E. coli D22; and the E. coli AG100A strain lacking the acrAB efflux pump encoding genes were used to determine the ability of the PBP inhibitors to penetrate the outer membrane of gram-negative bacteria and inhibit bacterial growth. […] The P. aeruginosa ATCC 27853 and A. baumannii ATCC 19606, along with the hyper-permeable P. aeruginosa ATCC 35151 and an engineered efflux pump-compromised strain of P. aeruginosa (ΔmexAB-oprM) were used to determine the ability of PBP inhibitors to penetrate the outer membrane of P. aeruginosa and A. baumannii and assess antibacterial activity against these important gram-negative organisms.
Briefly, cryo-preserved bacterial cultures of challenge strains are streaked for isolation on appropriate agar medium, in this case cation-adjusted Mueller Hinton agar. Following incubation to allow growth of the colonies, plates are sealed with parafilm and stored refrigerated for up to two weeks. For preparation of assay inoculum and to ensure low variability, at least 5 colonies are picked from the agar plates with an inoculating loop and aseptically transferred to a culture tube containing 3 mL of cation-adjusted Mueller Hinton broth (CAMHB). The broth culture is grown for 3-5 hours at 37° C. with shaking at 200 rpm. Meanwhile, 2-fold serial dilutions of test compounds are conducted in a 96-well plate with a final volume of 75 μL per well at 2-fold the final desired concentration. After the dilution plates are set up the growing cultures are then diluted in a cuvette containing CAMHB and the optical density is measured at 600 nm. The inoculum is diluted such that 75 μL of this culture in CAMHB results in a starting bacterial concentration of 2-8×10^5 CFU/mL when added to the dilution plates. The plates are incubated for 16-20 hours for Enterobacteriaceae and Pseudomonas and 20-24 hours for Acinetobacter at 37° C. The MIC values are read visually as the lowest concentration well with no bacterial growth.

[15] = biological target: T3, E. coli K12 PBP2 (Escherichia coli, UniProt P0AD65); assay: Bocillin-FL fluorescence polarization competition binding assay, E. coli PBP2
T3 construct: made in house
T3 sequence (P0AD65 whole entry): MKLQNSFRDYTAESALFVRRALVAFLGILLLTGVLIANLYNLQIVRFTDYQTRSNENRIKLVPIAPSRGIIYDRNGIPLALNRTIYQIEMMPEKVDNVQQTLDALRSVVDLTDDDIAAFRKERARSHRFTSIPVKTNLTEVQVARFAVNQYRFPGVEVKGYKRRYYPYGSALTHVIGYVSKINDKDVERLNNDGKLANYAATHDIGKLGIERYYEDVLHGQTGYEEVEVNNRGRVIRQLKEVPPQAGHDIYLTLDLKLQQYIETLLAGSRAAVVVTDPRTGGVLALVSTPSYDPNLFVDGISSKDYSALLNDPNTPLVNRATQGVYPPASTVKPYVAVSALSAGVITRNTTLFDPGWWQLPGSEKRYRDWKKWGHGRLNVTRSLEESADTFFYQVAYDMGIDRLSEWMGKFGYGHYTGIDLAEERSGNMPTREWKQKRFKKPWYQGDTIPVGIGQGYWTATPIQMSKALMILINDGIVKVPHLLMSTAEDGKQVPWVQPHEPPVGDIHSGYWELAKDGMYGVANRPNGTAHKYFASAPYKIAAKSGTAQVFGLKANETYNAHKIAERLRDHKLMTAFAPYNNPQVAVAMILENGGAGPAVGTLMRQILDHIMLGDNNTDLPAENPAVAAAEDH
Text: (§2) Example I: Experimental Method for Penicillin-Binding Protein Binding Assays with Bocillin-FL Via Fluorescence Polarization
To determine the ability of boronic acid-based test PBP inhibitors to bind Penicillin Binding Proteins (PBPs), Bocillin-FL (fluorescently-labeled penicillin V; ThermoFisher Scientific) was used in a fluorescence polarization (FP) competition binding assay to assess inhibitor binding to PBP2, PBP3 or PBP4 from Escherichia coli (K12), PBP3 from Pseudomonas aeruginosa (PA01), PBP1a, PBP2 and PBP3 from Acinetobacter baumannii (ATCC 19606), and PBP2 from Neiserria gonorrheae (FA19). PBPs were cloned and purified as described previously (E. coli PBPs, King, D. T, et al., ACS Infectious Diseases 2015, 1, 175-184; P. aeruginosa PBP3, Han et. al., PNAS 2010, 107 (51), 22002-22007; A. baumannii PBPs, Penwell et. al., Antimicrob. Agents Chemother. 2015, 59 (3), 1680-1689; N. gonorrhoeae PBP2, Singh et. al., J Biol. Chem. 2019, 294 (38), 14020-14032). To establish assay conditions for competition binding, enzyme titration/saturation binding experiments were initially performed. Bocillin-FL was prepared at 0.2 μM in a buffer comprised of 50 mM Hepes (pH 8.0), 300 mM NaCl and 5% (v/v) glycerol for reactions with E. coli, P. aeruginosa and N. gonorrhoeae PBPs, and 25 mM Tris (pH 8.0), 200 mM NaCl and 10% (v/v) glycerol and 0.005% (v/v) Tween 20 for reactions with A. baumannii PBPs. Saturation binding was performed by mixing 40 μl of PBP solutions ranging in concentrations from 0-24 μM with 40 μl of the 0.2 μM Bocillin-FL solution, in individual wells of a black 384-well microplate. FP was measured immediately upon mixing (Excitation, 490 nm; Emission, 520 nm; g-factor, 0.96), using a Cytation3 (BioTek) microplate reader and measured continuously for up to 120 minutes. […] Bocillin-FL was added and the FP immediately measured for up to 60 minutes (90 minutes for E. coli PBP2). […]

[16] = biological target: T4, A. baumannii PBP2 (Acinetobacter baumannii, UniProt D0C8Z9); assay: Bocillin-FL fluorescence polarization competition binding assay, A. baumannii PBP2
T4 construct: made in house
T4 sequence (D0C8Z9 1-672): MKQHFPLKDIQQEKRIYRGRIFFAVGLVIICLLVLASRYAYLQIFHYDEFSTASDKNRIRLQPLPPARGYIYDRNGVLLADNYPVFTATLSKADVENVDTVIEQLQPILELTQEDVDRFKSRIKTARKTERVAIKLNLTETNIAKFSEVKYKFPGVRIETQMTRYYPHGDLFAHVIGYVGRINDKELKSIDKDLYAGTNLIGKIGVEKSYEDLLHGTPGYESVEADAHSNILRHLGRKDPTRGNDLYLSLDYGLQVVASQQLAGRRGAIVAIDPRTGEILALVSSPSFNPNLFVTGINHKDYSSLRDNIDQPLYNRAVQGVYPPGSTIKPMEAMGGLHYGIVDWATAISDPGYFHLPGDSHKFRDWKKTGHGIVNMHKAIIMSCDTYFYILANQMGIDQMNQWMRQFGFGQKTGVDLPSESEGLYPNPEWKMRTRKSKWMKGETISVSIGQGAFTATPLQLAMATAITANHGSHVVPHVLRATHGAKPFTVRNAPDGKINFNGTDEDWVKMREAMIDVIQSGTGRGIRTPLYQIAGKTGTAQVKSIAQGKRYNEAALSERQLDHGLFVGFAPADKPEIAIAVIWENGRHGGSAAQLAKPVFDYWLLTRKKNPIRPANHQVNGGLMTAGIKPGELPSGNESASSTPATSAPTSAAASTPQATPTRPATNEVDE
Text: as §2
To determine the ability of boronic acid-based test PBP inhibitors to bind Penicillin Binding Proteins (PBPs), Bocillin-FL (fluorescently-labeled penicillin V; ThermoFisher Scientific) was used in a fluorescence polarization (FP) competition binding assay to assess inhibitor binding to PBP2, PBP3 or PBP4 from Escherichia coli (K12), PBP3 from Pseudomonas aeruginosa (PA01), PBP1a, PBP2 and PBP3 from Acinetobacter baumannii (ATCC 19606), and PBP2 from Neiserria gonorrheae (FA19). PBPs were cloned and purified as described previously (E. coli PBPs, King, D. T, et al., ACS Infectious Diseases 2015, 1, 175-184; P. aeruginosa PBP3, Han et. al., PNAS 2010, 107 (51), 22002-22007; A. baumannii PBPs, Penwell et. al., Antimicrob. Agents Chemother. 2015, 59 (3), 1680-1689; N. gonorrhoeae PBP2, Singh et. al., J Biol. Chem. 2019, 294 (38), 14020-14032). To establish assay conditions for competition binding, enzyme titration/saturation binding experiments were initially performed. Bocillin-FL was prepared at 0.2 μM in a buffer comprised of 50 mM Hepes (pH 8.0), 300 mM NaCl and 5% (v/v) glycerol for reactions with E. coli, P. aeruginosa and N. gonorrhoeae PBPs, and 25 mM Tris (pH 8.0), 200 mM NaCl and 10% (v/v) glycerol and 0.005% (v/v) Tween 20 for reactions with A. baumannii PBPs. Saturation binding was performed by mixing 40 μl of PBP solutions ranging in concentrations from 0-24 μM with 40 μl of the 0.2 μM Bocillin-FL solution, in individual wells of a black 384-well microplate. FP was measured immediately upon mixing (Excitation, 490 nm; Emission, 520 nm; g-factor, 0.96), using a Cytation3 (BioTek) microplate reader and measured continuously for up to 120 minutes. […] The competition binding assay (80 μl final volume) was validated using beta-lactams and PBPs at final concentrations of: 1.5 μM, E. coli PBP3; 0.75 μM, P. aeruginosa PBP3; 1 μM A. baumannii PBP1a; 2.5 μM A. baumannii PBP2; 0.2 μM A. baumannii PBP3; and […] N. gonorrhoeae PBP2. Bocillin-FL was at 0.1 μM (0.05 μM with A. baumannii PBP1a) and beta-lactam concentrations ranged from 0-1000 μM. […] Bocillin-FL was added and the FP immediately measured for up to 60 minutes (90 minutes for E. coli PBP2). […] The beta-lactam potency was reported as the concentration of beta-lactam required to reduce the amount of PBP bound-Bocillin-FL by 50% (EC50). […] Binding assays for boronic acid PBP inhibitors were performed in an identical fashion for the respective PBPs

T1 sequence (P0AD68 1-577): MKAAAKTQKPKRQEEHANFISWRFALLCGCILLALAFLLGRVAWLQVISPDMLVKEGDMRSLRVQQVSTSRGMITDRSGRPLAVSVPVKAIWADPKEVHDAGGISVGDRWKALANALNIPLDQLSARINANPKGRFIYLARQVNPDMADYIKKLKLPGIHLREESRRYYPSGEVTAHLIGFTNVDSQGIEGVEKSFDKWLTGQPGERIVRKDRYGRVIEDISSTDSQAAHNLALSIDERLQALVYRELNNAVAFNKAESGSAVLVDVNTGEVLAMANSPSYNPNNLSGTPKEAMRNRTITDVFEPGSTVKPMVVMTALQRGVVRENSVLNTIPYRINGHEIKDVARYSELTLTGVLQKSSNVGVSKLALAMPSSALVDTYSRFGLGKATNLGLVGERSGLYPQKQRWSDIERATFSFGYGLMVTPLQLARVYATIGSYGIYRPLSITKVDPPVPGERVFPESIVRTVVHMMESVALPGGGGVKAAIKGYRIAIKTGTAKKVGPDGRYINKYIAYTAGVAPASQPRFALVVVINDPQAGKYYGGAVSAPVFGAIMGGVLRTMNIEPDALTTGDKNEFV

| Structure (SMILES) | EC50 [1] [nM] | P. aeruginosa PBP3 Potency [2] | MIC [3] [µg/mL] | MIC [4] [µg/mL] | MIC [5] [µg/mL] | MIC [6] [µg/mL] | MIC [7] [µg/mL] | MIC [8] [µg/mL] | MIC [9] [µg/mL] | MIC [10] [µg/mL] | MIC [11] [µg/mL] | MIC [12] [µg/mL] | MIC [13] [µg/mL] | MIC [14] [µg/mL] | EC50 [15] [nM] | EC50 [16] [nM] |
| --- | --- | --- | --- | --- | --- | --- | --- | --- | --- | --- | --- | --- | --- | --- | --- | --- |
| CCN1CCN(C(=O)NC(C(=O)N[C@H]2Cc3ccc(SCCN4CCCC4)c(C(=O)O)c3OB2O)c2csc(N)n2)C(=O)C1=O (stereo partly drawn) [Example 64, (3R)-3-(2-(2-aminothiazol-4-yl)-2-(4-ethyl-2,3-dioxopiperazine-1-carboxamido)acetamido)-2-hydroxy-7-((2-(pyrrolidin-1-yl)ethyl)thio)-3,4-dihydro-2H-benzo[e][1,2]oxaborinine-8-carboxylic acid] | > 500000 | B (B represents a potency between 30 μM and 500 μM inclusive) | > 128 | 32 to 64 (≈ 48.5 to 97 µM) | > 128 | > 128 | > 128 | > 128 | > 128 | > 128 | > 128 | > 128 | 8 to 16 (≈ 12.1 to 24.3 µM) | > 128 | – | – |
| CC1(C)S[C@@H]2[C@H](/N=C/N3CCCCCC3)C(=O)N2[C@H]1C(=O)O [mecillinam, reference compound] | – | – | – | – | – | – | – | – | – | – | – | – | – | – | 2100 | 400 |
